US12582625B2, “Methods for treating neuroblastoma” (priority 2015, dated 2026)
Where “and” joins values, the source holds several entries; their conditions need not be identical. Identical values can stand only once. Entries after “also recorded” stand apart in the source; their conditions may differ.

Experiments:
[1] = system: refractory or relapsed neuroblastoma; test: NMTRC 002: tumor response and progression free survival; type: in vivo, human; settings: for PFS (days), individual patients: DFMO alone cycle 1, then with etoposide; for Status or Reason off study, individual patients: PF = progression free, PD = progressive disease
Experimental: Study Design and Treatment.
Tumor and clinical responses were monitored as secondary endpoints. Eighteen subjects were evaluated for efficacy. This study used the (RECIST) Response Evaluation Criteria measurements in Solid Tumor from the NCI (27) modified for pediatrics as well as MIBG or PET and bone marrow response. Tumor assessments/imaging studies were obtained at baseline>7 days from prior therapy and <21 days from the start of study therapy. These were repeated at the end of the first cycle and again after every other cycle.

[2] = system: NB cells; settings: DFMO in the 50-150 μM range; cited from earlier work
[3] = system: urinary polyamines; test: NMTRC 002: urinary polyamine levels during DFMO therapy; type: in vivo, human
Experimental: Urinary Polyamine Levels. Patients were consented for urine analysis in NMTRC 002. […] Polyamines with at least one free primary amine were quantified using reverse-phase high-performance liquid chromatography (HPLC) as previously described (Thompson et al., 2010). Urinary N^1,N^12-diacetylspermine (N^1,N^12-Ac2Spm or DAS) was determined using the auto DAS reagent kit (Alfresa Pharma Co., Osaka, Japan), according to the manufacturer's instructions. The assay involves the specific binding between a bovine serum albumin-acetylspermine conjugate, as a DAS mimic, and colloidal gold antibody complexes, and has been previously described (Kawakita et al., 2011).

[4] = NMTRC003 phase II prevention trial: adverse events; type: in vivo
Experimental: Dosing diaries were required to be completed for each cycle. […] The primary endpoint was Event Free Survival (EFS); secondary objectives included Overall Survival (OS) and safety. EFS was defined as the period from the first day of administration of study drug to the first occurrence of relapse or death, and OS was defined as the first day of administration of study drug until death; subjects without an event were censored at the time of last contact. Safety analysis was conducted on all subjects who received at least one dose of study drug, and included the frequency, grading, expectedness and attribution of all adverse events as well as dose interruptions, dose reductions, and treatment discontinuation.

[5] = ODC SNP rs2302615 genotype Any A
[6] = ODC SNP rs2302616 genotype Any T
[7] = human, in vivo, 27 4-week cycles

NCCCC(N)(C(=O)O)C(F)F (centres unmarked) [DFMO, 2,5-diamino-2-(difluoromethyl) pentanoic acid]
patients alive without progression of disease ([1]; 2-4.5 years after starting DFMO): three subjects remain alive without progression of disease; also recorded: Three patients remain alive without progression of disease
subjects with best response of progressive disease ([1]; 18 evaluable subjects): 5
subjects with best response of stable disease by RECIST ([1]; 18 evaluable subjects): 12
patients with best response of PR ([1]; 18 evaluable subjects, MIBG evaluable disease only): 1
Best Response (CT/MIBG), individual patients ([1]; DFMO dose 500 mg/m^2 BID): SD/PR
PFS (days), individual patients ([1]; DFMO dose 500 mg/m^2 BID): 94 days and 1573 days and 1559 days
Status or Reason off study, individual patients ([1]; DFMO dose 500 mg/m^2 BID): Alive (PF)
PFS (days), individual patients ([1]; DFMO dose 750 mg/m^2 BID): 418 days and 103 days and 67 days and 57 days and 31 days
PFS (days), individual patients ([1]; DFMO dose 1000 mg/m^2 BID): 239 days and 64 days and 59 days
Best Response (CT/MIBG), individual patients ([1]; DFMO dose 1500 mg/m^2 BID): SD/PR; also recorded: (CT Neg)/PR
PFS (days), individual patients ([1]; DFMO dose 1500 mg/m^2 BID): 663 days and 209 days and 136 days and 62 days (3×) and 21 days
Status or Reason off study, individual patients ([1]; DFMO dose 1500 mg/m^2 BID): Alive (PF) and 2nd Leukemia
mean progression free survival (PFS) ([1]; NMTRC 002, all evaluable subjects): 420 days
PFS [1, 5]: 282.1 ± 499.6
PFS ([1]; ODC SNP rs2302615 genotype GG): 326.7 ± 501.6
PFS [1, 6]: 498.0 ± 635.4
PFS ([1]; ODC SNP rs2302616 genotype GG): 110.8 ± 119.1
median progression free survival (PFS) ([1]; all 18 evaluable subjects, 95% CI: 62-418 days (Saulnier Sholler et al., 2015)): 80.5 days
PFS ([1]; patients with GG at rs2302616): 110 days
PFS ([1]; patients with any minor T allele at rs2302616): 498 days
response by PET scans ([1]; three subjects evaluated by PET): two had a complete response and one a partial response
killing of NB cells [2]: do not kill NB cells
DAS increase from Cycle 1 Day 1, individual patients ([3]; DFMO dose 500 mg/m^2 BID): Yes and No
UPA Cycle 1 Day 8 (sum of putrescine, N1AcSpd, N8AcSpd and DAS), individual patients ([3]; DFMO dose 500 mg/m^2 BID): 4.20 and 15.70 and 11.69
DAS increase from Cycle 1 Day 1, individual patients ([3]; DFMO dose 750 mg/m^2 BID): No (2×) and Yes (3×)
UPA Cycle 1 Day 8 (sum of putrescine, N1AcSpd, N8AcSpd and DAS), individual patients ([3]; DFMO dose 750 mg/m^2 BID): 7.80 and 22.08 and 1.94 and 13.46
DAS increase from Cycle 1 Day 1, individual patients ([3]; DFMO dose 1000 mg/m^2 BID): No and Yes (2×)
UPA Cycle 1 Day 8 (sum of putrescine, N1AcSpd, N8AcSpd and DAS), individual patients ([3]; DFMO dose 1000 mg/m^2 BID): 8.71 and 3.89 and 3.28
DAS increase from Cycle 1 Day 1, individual patients ([3]; DFMO dose 1500 mg/m^2 BID): Yes (4×) and No (3×)
UPA Cycle 1 Day 8 (sum of putrescine, N1AcSpd, N8AcSpd and DAS), individual patients ([3]; DFMO dose 1500 mg/m^2 BID): 5.61 and 3.98 and 6.99 and 3.77 and 8.81 and 7.38 and 5.93
UPA (C1D1 − C8D1)/C1D1 × 100 [3, 5]: 0.66 ± 92.00
UPA (C1D1 − C8D1)/C1D1 × 100 ([3]; ODC SNP rs2302615 genotype GG): 23.26 ± 35.59
UPA (C1D1 − C8D1)/C1D1 × 100 [3, 6]: 48.32 ± 18.24
UPA (C1D1 − C8D1)/C1D1 × 100 ([3]; ODC SNP rs2302616 genotype GG): −24.46 ± 83.67
increase of urinary polyamine levels from baseline ([3]; after one week of DFMO therapy, GG genotype at rs2302616): ~25%
decrease of urinary polyamine levels from baseline ([3]; after one week of DFMO therapy, minor T allele at rs2302616): ~50%
change in urinary N^1AcSpd between Day 8 and 15 ([3]; cycle 1, N=16 patients with complete data, P=1.000): No change
patients with increased urinary DAS ([3]; disease progression within 100 days of therapy start): 9/10
urinary N^1AcSpd contents ([3]; first two weeks of treatment, population as a whole): reduced
average decrease of urinary polyamines from baseline ([3]; patients with disease progression after 100 days from start of therapy): 1.57±3.37 μmol/g Creatinine
average increase of total urinary polyamines (putrescine+N^1AcSpd+N^8AcSpd+DAS) from baseline ([3]; patients with disease progression less than 100 days after start of therapy): 6.56±16.29 μmol/g Creatinine
patients with increased urinary DAS ([3]; progression free up to 100 days): 1/7
patients with grade 2-3 transaminitis (most common toxicity) ([4]; DFMO 500-1000 mg/m^2 BID): < 10%
tolerability ([4]; DFMO 500-1000 mg/m^2 BID): well tolerated
ALT elevation Grade 2, patients (%) ([4]; Stratum 1, n = 94): 3 (3%)
ALT elevation Grade 3, patients (%) ([4]; Stratum 1, n = 94): 5 (5%)
ALT elevation Grade 4, patients (%) ([4]; Stratum 1, n = 94): 0
ALT elevation Grade 5, patients (%) ([4]; Stratum 1, n = 94): 0
AST elevation Grade 2, patients (%) ([4]; Stratum 1, n = 94): 3 (3%)
AST elevation Grade 3, patients (%) ([4]; Stratum 1, n = 94): 4 (4%)
AST elevation Grade 4, patients (%) ([4]; Stratum 1, n = 94): 0
AST elevation Grade 5, patients (%) ([4]; Stratum 1, n = 94): 0
Agitation Grade 2, patients (%) ([4]; Stratum 1, n = 94): 1 (1%)
Agitation Grade 3, patients (%) ([4]; Stratum 1, n = 94): 0
Agitation Grade 4, patients (%) ([4]; Stratum 1, n = 94): 0
Agitation Grade 5, patients (%) ([4]; Stratum 1, n = 94): 0
Alopecia Grade 2, patients (%) ([4]; Stratum 1, n = 94): 1 (1%)
Alopecia Grade 3, patients (%) ([4]; Stratum 1, n = 94): 0
Alopecia Grade 4, patients (%) ([4]; Stratum 1, n = 94): 0
Alopecia Grade 5, patients (%) ([4]; Stratum 1, n = 94): 0
Anemia Grade 2, patients (%) ([4]; Stratum 1, n = 94): 4 (4%)
Anemia Grade 3, patients (%) ([4]; Stratum 1, n = 94): 0
Anemia Grade 4, patients (%) ([4]; Stratum 1, n = 94): 0
Anemia Grade 5, patients (%) ([4]; Stratum 1, n = 94): 0
Anorexia Grade 2, patients (%) ([4]; Stratum 1, n = 94): 1 (1%)
Anorexia Grade 3, patients (%) ([4]; Stratum 1, n = 94): 0
Anorexia Grade 4, patients (%) ([4]; Stratum 1, n = 94): 0
Anorexia Grade 5, patients (%) ([4]; Stratum 1, n = 94): 0
Diarrhea Grade 2, patients (%) ([4]; Stratum 1, n = 94): 5 (5%)
Diarrhea Grade 3, patients (%) ([4]; Stratum 1, n = 94): 0
Diarrhea Grade 4, patients (%) ([4]; Stratum 1, n = 94): 0
Diarrhea Grade 5, patients (%) ([4]; Stratum 1, n = 94): 0
Fever Grade 2, patients (%) ([4]; Stratum 1, n = 94): 2 (2%)
Fever Grade 3, patients (%) ([4]; Stratum 1, n = 94): 0
Fever Grade 4, patients (%) ([4]; Stratum 1, n = 94): 0
Fever Grade 5, patients (%) ([4]; Stratum 1, n = 94): 0
Hearing Loss Grade 2, patients (%) ([4]; Stratum 1, n = 94): 2 (2%)
Hearing Loss Grade 3, patients (%) ([4]; Stratum 1, n = 94): 4 (4%)
Hearing Loss Grade 4, patients (%) ([4]; Stratum 1, n = 94): 0
Hearing Loss Grade 5, patients (%) ([4]; Stratum 1, n = 94): 0
Hypoglycemia Grade 2, patients (%) ([4]; Stratum 1, n = 94): 0
Hypoglycemia Grade 3, patients (%) ([4]; Stratum 1, n = 94): 0
Hypoglycemia Grade 4, patients (%) ([4]; Stratum 1, n = 94): 1 (1%)
Hypoglycemia Grade 5, patients (%) ([4]; Stratum 1, n = 94): 0
Hypokalemia Grade 2, patients (%) ([4]; Stratum 1, n = 94): 0
Hypokalemia Grade 3, patients (%) ([4]; Stratum 1, n = 94): 2 (2%)
Hypokalemia Grade 4, patients (%) ([4]; Stratum 1, n = 94): 0
Hypokalemia Grade 5, patients (%) ([4]; Stratum 1, n = 94): 0
INR Elevated Grade 2, patients (%) ([4]; Stratum 1, n = 94): 1 (1%)
INR Elevated Grade 3, patients (%) ([4]; Stratum 1, n = 94): 0
INR Elevated Grade 4, patients (%) ([4]; Stratum 1, n = 94): 0
INR Elevated Grade 5, patients (%) ([4]; Stratum 1, n = 94): 0
Infection, Other Grade 5, patients (%) ([4]; Stratum 1, n = 94): 0
Infection, middle ear Grade 5, patients (%) ([4]; Stratum 1, n = 94): 0
Neutrophil count decrease Grade 2, patients (%) ([4]; Stratum 1, n = 94): 4 (4%)
Neutrophil count decrease Grade 3, patients (%) ([4]; Stratum 1, n = 94): 3 (3%)
Neutrophil count decrease Grade 4, patients (%) ([4]; Stratum 1, n = 94): 0
Neutrophil count decrease Grade 5, patients (%) ([4]; Stratum 1, n = 94): 0
Pain Grade 2, patients (%) ([4]; Stratum 1, n = 94): 2 (2%)
Pain Grade 3, patients (%) ([4]; Stratum 1, n = 94): 0
Pain Grade 4, patients (%) ([4]; Stratum 1, n = 94): 0
Pain Grade 5, patients (%) ([4]; Stratum 1, n = 94): 0
Platelet count decrease Grade 2, patients (%) ([4]; Stratum 1, n = 94): 2 (2%)
Platelet count decrease Grade 3, patients (%) ([4]; Stratum 1, n = 94): 0
Platelet count decrease Grade 4, patients (%) ([4]; Stratum 1, n = 94): 0
Platelet count decrease Grade 5, patients (%) ([4]; Stratum 1, n = 94): 0
Post Nasal Drip Grade 2, patients (%) ([4]; Stratum 1, n = 94): 1 (1%)
Post Nasal Drip Grade 3, patients (%) ([4]; Stratum 1, n = 94): 0
Post Nasal Drip Grade 4, patients (%) ([4]; Stratum 1, n = 94): 0
Post Nasal Drip Grade 5, patients (%) ([4]; Stratum 1, n = 94): 0
Rash Grade 2, patients (%) ([4]; Stratum 1, n = 94): 1 (1%)
Rash Grade 3, patients (%) ([4]; Stratum 1, n = 94): 0
Rash Grade 4, patients (%) ([4]; Stratum 1, n = 94): 0
Rash Grade 5, patients (%) ([4]; Stratum 1, n = 94): 0
Weight Gain Grade 2, patients (%) ([4]; Stratum 1, n = 94): 1 (1%)
Weight Gain Grade 3, patients (%) ([4]; Stratum 1, n = 94): 0
Weight Gain Grade 4, patients (%) ([4]; Stratum 1, n = 94): 0
Weight Gain Grade 5, patients (%) ([4]; Stratum 1, n = 94): 0
White blood cell decreased Grade 2, patients (%) ([4]; Stratum 1, n = 94): 2 (2%)
White blood cell decreased Grade 3, patients (%) ([4]; Stratum 1, n = 94): 0
White blood cell decreased Grade 4, patients (%) ([4]; Stratum 1, n = 94): 0
White blood cell decreased Grade 5, patients (%) ([4]; Stratum 1, n = 94): 0
patients with an increase in hearing loss ([4]; among patients with pre-existing hearing loss, all returned to baseline after holding medication): 4 patients
Infection, Other Grade 2, patients (%) [4, 7]: 2 (2%)
Infection, Other Grade 3, patients (%) [4, 7]: 0
Infection, Other Grade 4, patients (%) [4, 7]: 0
Infection, middle ear Grade 2, patients (%) [4, 7]: 2 (2%)
Infection, middle ear Grade 3, patients (%) [4, 7]: 0
Infection, middle ear Grade 4, patients (%) [4, 7]: 0
population that did not report any related adverse events ([4]; over 2 years): 67%
serious adverse events (SAE) ([4]; whole study): only one SAE involving hypoglycemia
